Results on 22 compounds are retold here after ChEMBL document CHEMBL3046911, “Serotonin transporter activity of imidazolidine-2,4-dione and imidazo[2,1-f]purine-2,4-dione derivatives in aspect of their acid-base properties” (Med Chem Res, 2012).

The pKa is the negative logarithm of the acid dissociation constant. Higher therefore signals a group that holds its proton tightly.

Structures are written as SMILES.

The nature of the data set: physchem.
The compound `COc1ccccc1N1CCN(CCCN2C(=O)NC3(CCc4ccccc43)C2=O)CC1` (configuration not stated) gave a pKa of 9.6. The compound `Cc1cn2c3c(=O)n(C)c(=O)n(C)c3nc2n1CCCN1CCN(c2ccccc2)CC1` came in with a pKa of 7.55.

The compound `O=C1NC2(CCc3ccccc32)C(=O)N1CCCN1CCN(c2ccccc2)CC1` (configuration not stated) came in with a pKa of 10.5. Next, `Cn1c(=O)c2c(nc3n(CCCN4CCN(c5cccc(Cl)c5)CC4)ccn23)n(C)c1=O`: 8.35. `Cn1c(=O)c2c(nc3n(CCCN4CCc5ccccc5C4)c(-c4ccccc4)cn23)n(C)c1=O` yielded a pKa of 10.4. For the compound `Cc1cn2c3c(=O)n(C)c(=O)n(C)c3nc2n1CCCN1CCN(c2cccc(Cl)c2)CC1`, the pKa was determined as 8.12.

Take `COc1ccccc1N1CCN(CCCn2c(C)cn3c4c(=O)n(C)c(=O)n(C)c4nc23)CC1`: the pKa worked out at 7.61.

With `O=C1NC2(CCc3ccccc32)C(=O)N1CCCN1CCN(c2cccc(C(F)(F)F)c2)CC1` (configuration not stated), the pKa was determined as 9.96. `COc1ccccc1N1CCN(CCCn2ccn3c4c(=O)n(C)c(=O)n(C)c4nc23)CC1` displayed a pKa of 8.19. The compound `COc1ccccc1N1CCN(CCCN2C(=O)NC3(CCCc4ccccc43)C2=O)CC1` (configuration not stated) gave a pKa of 10.3. Compound `O=C1NC2(CCCc3ccccc32)C(=O)N1CCCN1CCc2ccccc2C1` (configuration not stated) returned a pKa of 10.9. As for `Cn1c(=O)c2c(nc3n(CCCN4CCN(c5ccccc5)CC4)ccn23)n(C)c1=O`, the pKa is 8.09. Next, `O=C1NC2(CCCc3ccccc32)C(=O)N1CCCN1CCN(c2cccc(Cl)c2)CC1` (configuration not stated): 10.8; `Cn1c(=O)c2c(nc3n(CCCN4CCN(c5ccccc5)CC4)c(-c4ccccc4)cn23)n(C)c1=O`: 8.79. Turning to `O=C1NC2(CCCc3ccccc32)C(=O)N1CCCN1CCN(c2cccc(C(F)(F)F)c2)CC1` (configuration not stated), the pKa was found to be 11.1. The compound `O=C1NC2(CCc3ccccc32)C(=O)N1CCCN1CCc2ccccc2C1` (configuration not stated) yielded a pKa of 10.9. Consider `Cc1cn2c3c(=O)n(C)c(=O)n(C)c3nc2n1CCCN1CCN(c2cccc(Cl)c2Cl)CC1`, for which the pKa is 7.61.

In turn, `Cn1c(=O)c2c(nc3n(CCCN4CCN(c5cccc(Cl)c5)CC4)c(-c4ccccc4)cn23)n(C)c1=O` displayed a pKa of 10.6. Next, `COc1ccccc1N1CCN(CCCn2c(-c3ccccc3)cn3c4c(=O)n(C)c(=O)n(C)c4nc23)CC1`: 8.44. In the case of `O=C1NC2(CCc3ccccc32)C(=O)N1CCCN1CCN(c2cccc(Cl)c2)CC1` (configuration not stated), the pKa worked out at 10.3.

In turn, `O=C1NC2(CCCc3ccccc32)C(=O)N1CCCN1CCN(c2ccccc2)CC1` (configuration not stated) displayed a pKa of 10.6. Consider `Cc1cn2c3c(=O)n(C)c(=O)n(C)c3nc2n1CCCN1CCc2ccccc2C1`, for which the pKa amounted to 8.66.
